Results as given in the NIST ThermoML archive (doi:10.1016/j.jct.2007.07.002).
Numbers after ± are expanded uncertainties.

Conditions: Gas, double Helmholtz acoustic resonator

[C-]#[O+] [carbon monoxide]
Conditions | kinematic viscosity [m2/s] | speed of sound [m/s]
225 K, 250.04 kPa | 3.74e-06 ± 4.5e-08 | 305.59 ± 0.28
225 K, 371.9 kPa | 2.5e-06 ± 1.9e-07 | 305.42 ± 0.35
225 K, 499.99 kPa | 1.86e-06 ± 5e-08 | 305.4 ± 0.093
225 K, 560.56 kPa | 1.68e-06 ± 6e-08 | 305.34 ± 0.081
225 K, 743.07 kPa | 1.25e-06 ± 1.5e-08 | 305.24 ± 0.063
225 K, 750 kPa | 1.23e-06 ± 1.9e-08 | 305.26 ± 0.075
225 K, 934.61 kPa | 1e-06 ± 1.2e-08 | 305.14 ± 0.063
225 K, 1000 kPa | 9.4e-07 ± 1.1e-08 | 305.15 ± 0.063
225 K, 1141.5 kPa | 8.17e-07 ± 9.8e-09 | 305.06 ± 0.063
225 K, 1250 kPa | 7.36e-07 ± 1.3e-08 | 305.04 ± 0.099
225 K, 1345.6 kPa | 6.95e-07 ± 8.3e-09 | 304.99 ± 0.063
225 K, 1500 kPa | 6.19e-07 ± 7.4e-09 | 304.99 ± 0.063
225 K, 1581.5 kPa | 5.88e-07 ± 7.1e-09 | 304.94 ± 0.063
225 K, 1750 kPa | 5.32e-07 ± 6.4e-09 | 304.95 ± 0.063
225 K, 1787.1 kPa | 5.2e-07 ± 6.6e-09 | 304.91 ± 0.063
225 K, 2000 kPa | 4.66e-07 ± 8.4e-09 | 304.94 ± 0.063
225 K, 2016.1 kPa | 4.63e-07 ± 5.6e-09 | 304.91 ± 0.063
225 K, 2264 kPa | 4.14e-07 ± 5e-09 | 304.94 ± 0.063
225 K, 2454.7 kPa | 3.79e-07 ± 5e-09 | 304.96 ± 0.063
250 K, 221.65 kPa | 5.37e-06 ± 7.2e-07 | 322.56 ± 2.7
250 K, 401.55 kPa | 2.88e-06 ± 6.6e-08 | 322.4 ± 0.37
250 K, 587.83 kPa | 1.95e-06 ± 4.4e-08 | 322.43 ± 0.24
250 K, 791.25 kPa | 1.45e-06 ± 1.7e-08 | 322.51 ± 0.098
250 K, 982.55 kPa | 1.16e-06 ± 2.4e-08 | 322.58 ± 0.066
250 K, 1169.1 kPa | 9.78e-07 ± 1.4e-08 | 322.67 ± 0.11
250 K, 1392.3 kPa | 8.19e-07 ± 9.8e-09 | 322.79 ± 0.066
250 K, 1587.8 kPa | 7.19e-07 ± 1e-08 | 322.93 ± 0.066
250 K, 1808.2 kPa | 6.28e-07 ± 7.5e-09 | 323.08 ± 0.072
250 K, 2050.1 kPa | 5.56e-07 ± 6.8e-09 | 323.27 ± 0.066
250 K, 2241.5 kPa | 5.08e-07 ± 6.1e-09 | 323.44 ± 0.066
275 K, 250.64 kPa | 5.04e-06 ± 1.1e-06 | 338.34 ± 2.6
275 K, 286.53 kPa | 4.39e-06 ± 2.8e-07 | 338.19 ± 0.74
275 K, 465.9 kPa | 2.83e-06 ± 9.6e-08 | 338.32 ± 0.47
275 K, 500.41 kPa | 2.7e-06 ± 1e-07 | 338.48 ± 0.24
275 K, 652.16 kPa | 2.07e-06 ± 2.5e-08 | 338.54 ± 0.12
275 K, 750 kPa | 1.84e-06 ± 1.4e-07 | 338.76 ± 0.38
275 K, 832.04 kPa | 1.63e-06 ± 2e-08 | 338.75 ± 0.069
275 K, 1000 kPa | 1.37e-06 ± 5.6e-08 | 338.99 ± 0.24
275 K, 1045.4 kPa | 1.3e-06 ± 2.2e-08 | 338.99 ± 0.069
275 K, 1250 kPa | 1.11e-06 ± 4.2e-08 | 339.26 ± 0.23
275 K, 1252.2 kPa | 1.09e-06 ± 1.9e-08 | 339.22 ± 0.069
275 K, 1443.1 kPa | 9.45e-07 ± 1.1e-08 | 339.46 ± 0.069
275 K, 1500 kPa | 9.2e-07 ± 2.2e-08 | 339.57 ± 0.089
275 K, 1675 kPa | 8.12e-07 ± 9.7e-09 | 339.74 ± 0.069
275 K, 1750 kPa | 7.89e-07 ± 9.5e-09 | 339.89 ± 0.069
275 K, 1882.7 kPa | 7.23e-07 ± 8.7e-09 | 340.02 ± 0.069
275 K, 2000 kPa | 6.96e-07 ± 8.4e-09 | 340.23 ± 0.069
275 K, 2150.8 kPa | 6.33e-07 ± 7.6e-09 | 340.38 ± 0.069
275 K, 2364.7 kPa | 5.79e-07 ± 6.9e-09 | 340.69 ± 0.076
300 K, 252.56 kPa | 6.71e-06 ± 2.4e-07 | 353.44 ± 0.58
300 K, 501.19 kPa | 3.25e-06 ± 4.4e-08 | 353.74 ± 0.16
300 K, 709.53 kPa | 2.28e-06 ± 4.8e-07 | 354 ± 0.85
300 K, 1000 kPa | 1.64e-06 ± 2e-08 | 354.52 ± 0.086
300 K, 1178.1 kPa | 1.39e-06 ± 1.7e-08 | 354.78 ± 0.072
300 K, 1250 kPa | 1.31e-06 ± 1.6e-08 | 354.91 ± 0.072
300 K, 1374 kPa | 1.2e-06 ± 1.4e-08 | 355.09 ± 0.072
300 K, 1481.5 kPa | 1.12e-06 ± 1.3e-08 | 355.27 ± 0.072
300 K, 1500 kPa | 1.1e-06 ± 1.3e-08 | 355.32 ± 0.072
300 K, 1602.1 kPa | 1.03e-06 ± 1.2e-08 | 355.46 ± 0.072
300 K, 1730.3 kPa | 9.55e-07 ± 1.2e-08 | 355.67 ± 0.072
300 K, 1750 kPa | 9.47e-07 ± 1.1e-08 | 355.74 ± 0.072
300 K, 1868 kPa | 8.89e-07 ± 1.1e-08 | 355.91 ± 0.072
300 K, 2000 kPa | 8.32e-07 ± 1e-08 | 356.15 ± 0.14
300 K, 2005.3 kPa | 8.27e-07 ± 9.9e-09 | 356.15 ± 0.072
325 K, 303.08 kPa | 5.93e-06 ± 3.6e-07 | 367.79 ± 0.51
325 K, 515.56 kPa | 3.49e-06 ± 9.6e-08 | 368.11 ± 0.32
325 K, 732.01 kPa | 2.49e-06 ± 3.2e-08 | 368.52 ± 0.075
325 K, 943.23 kPa | 1.94e-06 ± 2.3e-08 | 368.91 ± 0.075
325 K, 1169.7 kPa | 1.57e-06 ± 1.9e-08 | 369.33 ± 0.082
325 K, 1401.2 kPa | 1.31e-06 ± 1.6e-08 | 369.77 ± 0.075
325 K, 1633.9 kPa | 1.12e-06 ± 1.4e-08 | 370.22 ± 0.075
325 K, 1908.7 kPa | 9.62e-07 ± 1.2e-08 | 370.77 ± 0.075
325 K, 2129.6 kPa | 8.63e-07 ± 1e-08 | 371.22 ± 0.075
325 K, 2413.1 kPa | 7.66e-07 ± 9.8e-09 | 371.82 ± 0.075
350 K, 342.4 kPa | 6.04e-06 ± 2.6e-07 | 381.63 ± 0.47
350 K, 544.1 kPa | 3.84e-06 ± 6.4e-08 | 382.06 ± 0.092
350 K, 775.52 kPa | 2.69e-06 ± 3.4e-08 | 382.52 ± 0.077
350 K, 1007.1 kPa | 2.06e-06 ± 2.5e-08 | 382.99 ± 0.1
350 K, 1245.1 kPa | 1.68e-06 ± 2e-08 | 383.51 ± 0.077
350 K, 1461.5 kPa | 1.43e-06 ± 1.7e-08 | 383.96 ± 0.078
350 K, 1735.1 kPa | 1.21e-06 ± 1.7e-08 | 384.56 ± 0.11
350 K, 1995.6 kPa | 1.05e-06 ± 1.3e-08 | 385.14 ± 0.078
350 K, 2208.2 kPa | 9.51e-07 ± 1.1e-08 | 385.62 ± 0.078
350 K, 2464.2 kPa | 8.55e-07 ± 1e-08 | 386.21 ± 0.078
375 K, 260.28 kPa | 8.45e-06 ± 1.2e-06 | 394.36 ± 1.7
375 K, 460.71 kPa | 4.99e-06 ± 1.7e-07 | 394.79 ± 0.87
375 K, 672.43 kPa | 3.42e-06 ± 8e-08 | 395.31 ± 0.095
375 K, 885.97 kPa | 2.63e-06 ± 3.1e-08 | 395.84 ± 0.08
375 K, 1102.9 kPa | 2.13e-06 ± 2.6e-08 | 396.34 ± 0.08
375 K, 1302.3 kPa | 1.81e-06 ± 2.2e-08 | 396.82 ± 0.08
375 K, 1537.5 kPa | 1.53e-06 ± 1.8e-08 | 397.37 ± 0.08
375 K, 1815.6 kPa | 1.3e-06 ± 1.5e-08 | 398.04 ± 0.08
375 K, 2026.2 kPa | 1.16e-06 ± 1.4e-08 | 398.56 ± 0.08
375 K, 2250.6 kPa | 1.05e-06 ± 1.3e-08 | 399.12 ± 0.081
375 K, 2518.2 kPa | 9.4e-07 ± 1.1e-08 | 399.8 ± 0.081

FS(F)(F)(F)(F)F [sulfur hexafluoride]
273.16 K
Conditions | kinematic viscosity [m2/s] | speed of sound [m/s]
290.38 kPa | 7.19e-07 ± 8.6e-09 | 126.14 ± 0.029
386.66 kPa | 5.33e-07 ± 6.4e-09 | 124.46 ± 0.029
492.4 kPa | 4.1e-07 ± 4.9e-09 | 122.54 ± 0.028
602.05 kPa | 3.28e-07 ± 3.9e-09 | 120.45 ± 0.028
712.29 kPa | 2.72e-07 ± 3.3e-09 | 118.25 ± 0.027
808.73 kPa | 2.35e-07 ± 2.8e-09 | 116.21 ± 0.027
903.28 kPa | 2.24e-07 | 114.14 ± 0.16
1000.5 kPa | 1.81e-07 ± 4.4e-09 | 111.81 ± 0.026
